The kinase profiling compilation of Christmann-Franck et al. (2016)
Values joined by “and” are separate entries in the source; they are usually repeats but may differ in a detail not shown here. Identical values can stand only once.

Legend:
Experiment in all cases: radiometric filter-binding kinase assay, Kinase HotSpot
Conditions in all cases: compound 0.5 µM; ATP 10 µM
[1] = target: JAK1 JH1 catalytic (human) (UniProt P23458)
[2] = target: PRKCA (human) (UniProt P17252)
[3] = target: EPHB2 (human) (UniProt P29323)
[4] = target: EPHA5 (human) (UniProt P54756)
[5] = target: IGF1R (human) (UniProt P08069)
[6] = target: MAP3K9 (human) (UniProt P80192)
[7] = target: MAP4K5 (human) (UniProt Q9Y4K4)
[8] = target: PIM2 (human) (UniProt Q9P1W9)
[9] = target: MAP3K14 (human) (UniProt Q99558)
[10] = target: STK4 (human) (UniProt Q13043)
[11] = target: PLK2 (human) (UniProt Q9NYY3)
[12] = target: WNK3 (human) (UniProt Q9BYP7)
[13] = target: CSNK1G3 (human) (UniProt Q9Y6M4)
[14] = target: CAMK1D (human) (UniProt Q8IU85)
[15] = target: SLK (human) (UniProt Q9H2G2)
[16] = target: MAP3K11 (human) (UniProt Q16584)
[17] = target: TYRO3 (human) (UniProt Q06418)
[18] = target: MAP3K3 (human) (UniProt Q99759)
[19] = target: TEK (human) (UniProt Q02763)
[20] = target: PDGFRA (human) (UniProt P16234)
[21] = target: PKN2 (human) (UniProt Q16513)
[22] = target: MARK4 (human) (UniProt Q96L34)
[23] = target: HCK (human) (UniProt P08631)
[24] = target: EGFR (human) (UniProt P00533)
[25] = target: SRPK1 (human) (UniProt Q96SB4)
[26] = target: RPS6KB2 (human) (UniProt Q9UBS0)
[27] = target: CDK5 CDK5R1 p35 (human) (UniProt Q00535+Q15078)
[28] = target: PRKG1 (human) (UniProt Q13976)
[29] = target: CLK3 (human) (UniProt P49761)
[30] = target: PRKD1 (human) (UniProt Q15139)
[31] = target: PRKCB2 (human) (UniProt P05771)
[32] = target: MAP3K10 (human) (UniProt Q02779)
[33] = target: STK39 (human) (UniProt Q9UEW8)
[34] = target: MAP4K2 (human) (UniProt Q12851)
[35] = target: MAPKAPK3 (human) (UniProt Q16644)
[36] = target: ACVRL1 (human) (UniProt P37023)
[37] = target: AURKB (human) (UniProt Q96GD4)
[38] = target: ABL1 (human) (UniProt P00519)
[39] = target: RPS6KA4 KD2 (human) (UniProt O75676)
[40] = target: TNK2 (human) (UniProt Q07912)
[41] = target: LYN (human) (UniProt P07948)
[42] = target: CDK6 CCND3 (human) (UniProt P30281+Q00534)

Chain of LYN (human) (P07948 whole entry, looked up): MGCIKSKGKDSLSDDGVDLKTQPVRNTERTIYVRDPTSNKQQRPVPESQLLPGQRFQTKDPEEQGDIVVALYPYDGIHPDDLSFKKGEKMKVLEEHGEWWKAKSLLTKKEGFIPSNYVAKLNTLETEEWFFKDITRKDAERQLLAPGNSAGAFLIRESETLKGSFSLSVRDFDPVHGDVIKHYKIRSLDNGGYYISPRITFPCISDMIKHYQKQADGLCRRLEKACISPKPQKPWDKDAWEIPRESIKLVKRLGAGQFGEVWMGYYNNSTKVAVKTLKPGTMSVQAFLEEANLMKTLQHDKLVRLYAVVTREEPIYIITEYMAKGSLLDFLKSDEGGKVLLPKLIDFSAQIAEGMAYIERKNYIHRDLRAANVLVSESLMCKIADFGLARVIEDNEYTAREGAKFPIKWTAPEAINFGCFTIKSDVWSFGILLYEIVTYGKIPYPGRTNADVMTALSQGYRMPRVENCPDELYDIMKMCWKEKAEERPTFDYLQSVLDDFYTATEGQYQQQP
Chain of PRKG1 (human) (Q13976 whole entry, looked up): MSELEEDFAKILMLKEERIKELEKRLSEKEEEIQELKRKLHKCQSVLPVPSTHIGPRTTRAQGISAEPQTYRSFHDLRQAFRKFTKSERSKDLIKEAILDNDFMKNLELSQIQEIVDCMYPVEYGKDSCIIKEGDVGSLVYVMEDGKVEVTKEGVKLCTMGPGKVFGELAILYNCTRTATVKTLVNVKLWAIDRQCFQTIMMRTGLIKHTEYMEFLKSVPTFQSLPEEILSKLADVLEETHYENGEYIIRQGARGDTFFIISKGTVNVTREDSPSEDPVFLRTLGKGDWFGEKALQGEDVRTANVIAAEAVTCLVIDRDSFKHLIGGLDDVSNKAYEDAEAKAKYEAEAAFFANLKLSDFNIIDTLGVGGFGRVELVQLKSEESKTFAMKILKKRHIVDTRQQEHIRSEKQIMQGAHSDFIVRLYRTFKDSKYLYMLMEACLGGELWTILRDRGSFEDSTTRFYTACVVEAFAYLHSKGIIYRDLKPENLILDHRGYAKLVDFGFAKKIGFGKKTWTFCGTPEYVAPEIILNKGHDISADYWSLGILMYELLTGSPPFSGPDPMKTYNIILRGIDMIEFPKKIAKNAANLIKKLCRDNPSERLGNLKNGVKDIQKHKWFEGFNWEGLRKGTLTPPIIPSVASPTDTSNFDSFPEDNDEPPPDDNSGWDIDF
Chain of ACVRL1 (human) (P37023 whole entry, looked up): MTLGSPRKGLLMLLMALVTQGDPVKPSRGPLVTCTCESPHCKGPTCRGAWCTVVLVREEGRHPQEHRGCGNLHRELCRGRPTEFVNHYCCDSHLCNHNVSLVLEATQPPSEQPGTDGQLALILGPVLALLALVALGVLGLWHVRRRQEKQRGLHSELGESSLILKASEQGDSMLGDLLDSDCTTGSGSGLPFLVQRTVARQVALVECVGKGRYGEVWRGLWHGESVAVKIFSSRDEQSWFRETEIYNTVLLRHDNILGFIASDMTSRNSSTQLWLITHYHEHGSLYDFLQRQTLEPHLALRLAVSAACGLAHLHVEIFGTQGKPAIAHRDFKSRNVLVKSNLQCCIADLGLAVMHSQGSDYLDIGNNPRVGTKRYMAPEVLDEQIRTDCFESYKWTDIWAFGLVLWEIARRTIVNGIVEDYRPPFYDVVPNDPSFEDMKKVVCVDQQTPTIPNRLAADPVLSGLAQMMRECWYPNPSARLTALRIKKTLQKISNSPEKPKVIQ
Chain of MAP3K9 (human) (P80192 whole entry, looked up): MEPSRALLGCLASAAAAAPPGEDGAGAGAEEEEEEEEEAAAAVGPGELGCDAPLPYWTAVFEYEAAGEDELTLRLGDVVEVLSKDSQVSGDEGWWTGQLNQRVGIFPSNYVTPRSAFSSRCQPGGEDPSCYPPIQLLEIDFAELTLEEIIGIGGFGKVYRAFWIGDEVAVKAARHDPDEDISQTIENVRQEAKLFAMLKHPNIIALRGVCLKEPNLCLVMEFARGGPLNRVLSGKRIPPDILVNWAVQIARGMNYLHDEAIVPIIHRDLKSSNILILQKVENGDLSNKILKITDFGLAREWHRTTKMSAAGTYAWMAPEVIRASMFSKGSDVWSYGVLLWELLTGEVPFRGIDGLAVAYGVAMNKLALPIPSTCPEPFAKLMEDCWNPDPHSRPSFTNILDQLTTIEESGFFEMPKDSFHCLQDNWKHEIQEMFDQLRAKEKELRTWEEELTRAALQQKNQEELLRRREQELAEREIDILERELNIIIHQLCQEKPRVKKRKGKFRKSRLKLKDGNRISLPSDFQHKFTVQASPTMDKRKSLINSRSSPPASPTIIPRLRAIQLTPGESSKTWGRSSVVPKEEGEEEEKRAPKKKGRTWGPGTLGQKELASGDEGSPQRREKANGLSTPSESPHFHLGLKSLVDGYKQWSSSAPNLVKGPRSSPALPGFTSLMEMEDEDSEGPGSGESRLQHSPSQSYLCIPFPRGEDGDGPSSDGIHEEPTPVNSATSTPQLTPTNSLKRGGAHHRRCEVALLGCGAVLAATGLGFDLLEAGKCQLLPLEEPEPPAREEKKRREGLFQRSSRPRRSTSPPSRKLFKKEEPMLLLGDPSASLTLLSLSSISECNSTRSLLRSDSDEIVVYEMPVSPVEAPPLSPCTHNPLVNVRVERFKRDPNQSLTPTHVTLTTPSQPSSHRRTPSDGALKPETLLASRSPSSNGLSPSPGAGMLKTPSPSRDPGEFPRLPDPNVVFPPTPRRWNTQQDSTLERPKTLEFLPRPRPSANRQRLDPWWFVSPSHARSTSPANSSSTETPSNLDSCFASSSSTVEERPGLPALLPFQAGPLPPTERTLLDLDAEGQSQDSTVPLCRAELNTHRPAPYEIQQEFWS
Chain of EPHA5 (human) (P54756 whole entry, looked up): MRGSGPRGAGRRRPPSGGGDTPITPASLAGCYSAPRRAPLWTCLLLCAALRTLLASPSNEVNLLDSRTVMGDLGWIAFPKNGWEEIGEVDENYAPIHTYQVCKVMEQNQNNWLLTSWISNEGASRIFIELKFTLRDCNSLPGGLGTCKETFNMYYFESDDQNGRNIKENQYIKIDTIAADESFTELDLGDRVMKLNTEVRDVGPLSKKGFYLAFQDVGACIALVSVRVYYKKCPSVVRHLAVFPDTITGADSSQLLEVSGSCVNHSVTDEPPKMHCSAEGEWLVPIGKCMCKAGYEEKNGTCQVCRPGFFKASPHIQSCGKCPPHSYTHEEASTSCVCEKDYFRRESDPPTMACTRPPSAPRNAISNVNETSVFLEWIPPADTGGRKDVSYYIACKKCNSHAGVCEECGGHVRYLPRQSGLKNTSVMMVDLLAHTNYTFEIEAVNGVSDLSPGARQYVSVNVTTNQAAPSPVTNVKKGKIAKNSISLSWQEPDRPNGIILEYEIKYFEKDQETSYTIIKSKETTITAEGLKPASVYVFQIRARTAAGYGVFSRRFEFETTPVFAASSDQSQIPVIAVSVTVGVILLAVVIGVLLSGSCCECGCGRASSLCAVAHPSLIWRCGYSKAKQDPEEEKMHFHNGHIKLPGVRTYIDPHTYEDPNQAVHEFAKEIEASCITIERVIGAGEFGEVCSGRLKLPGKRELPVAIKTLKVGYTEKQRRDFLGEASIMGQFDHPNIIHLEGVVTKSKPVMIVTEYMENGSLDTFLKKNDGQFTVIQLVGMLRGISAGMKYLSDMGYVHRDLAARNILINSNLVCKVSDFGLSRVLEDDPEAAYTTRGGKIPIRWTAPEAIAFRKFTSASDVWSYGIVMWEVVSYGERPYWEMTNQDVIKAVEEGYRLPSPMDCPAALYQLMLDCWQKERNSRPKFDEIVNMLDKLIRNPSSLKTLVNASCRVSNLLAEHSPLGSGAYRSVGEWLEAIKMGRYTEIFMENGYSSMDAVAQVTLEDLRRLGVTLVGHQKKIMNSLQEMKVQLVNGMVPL
Chain of MARK4 (human) (Q96L34 whole entry, looked up): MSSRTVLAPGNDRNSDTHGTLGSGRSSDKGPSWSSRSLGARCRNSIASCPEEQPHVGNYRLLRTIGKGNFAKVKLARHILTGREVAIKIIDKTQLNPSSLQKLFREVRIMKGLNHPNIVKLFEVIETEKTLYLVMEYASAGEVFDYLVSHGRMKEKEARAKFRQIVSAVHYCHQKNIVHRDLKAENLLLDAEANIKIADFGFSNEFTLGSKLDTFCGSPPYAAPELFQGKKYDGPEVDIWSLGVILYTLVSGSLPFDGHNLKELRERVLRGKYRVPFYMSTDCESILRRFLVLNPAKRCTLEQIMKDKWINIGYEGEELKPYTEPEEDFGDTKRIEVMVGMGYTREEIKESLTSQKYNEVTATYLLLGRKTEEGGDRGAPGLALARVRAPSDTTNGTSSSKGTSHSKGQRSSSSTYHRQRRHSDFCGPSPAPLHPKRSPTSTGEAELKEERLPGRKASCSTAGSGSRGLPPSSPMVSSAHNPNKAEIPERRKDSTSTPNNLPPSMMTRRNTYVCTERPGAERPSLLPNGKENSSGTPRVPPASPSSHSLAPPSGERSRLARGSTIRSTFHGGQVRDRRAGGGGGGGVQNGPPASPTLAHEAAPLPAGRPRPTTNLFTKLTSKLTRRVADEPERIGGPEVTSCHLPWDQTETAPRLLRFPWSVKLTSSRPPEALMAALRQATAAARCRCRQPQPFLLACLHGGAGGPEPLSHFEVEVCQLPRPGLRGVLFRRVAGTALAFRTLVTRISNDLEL
Chain of STK4 (human) (Q13043 whole entry, looked up): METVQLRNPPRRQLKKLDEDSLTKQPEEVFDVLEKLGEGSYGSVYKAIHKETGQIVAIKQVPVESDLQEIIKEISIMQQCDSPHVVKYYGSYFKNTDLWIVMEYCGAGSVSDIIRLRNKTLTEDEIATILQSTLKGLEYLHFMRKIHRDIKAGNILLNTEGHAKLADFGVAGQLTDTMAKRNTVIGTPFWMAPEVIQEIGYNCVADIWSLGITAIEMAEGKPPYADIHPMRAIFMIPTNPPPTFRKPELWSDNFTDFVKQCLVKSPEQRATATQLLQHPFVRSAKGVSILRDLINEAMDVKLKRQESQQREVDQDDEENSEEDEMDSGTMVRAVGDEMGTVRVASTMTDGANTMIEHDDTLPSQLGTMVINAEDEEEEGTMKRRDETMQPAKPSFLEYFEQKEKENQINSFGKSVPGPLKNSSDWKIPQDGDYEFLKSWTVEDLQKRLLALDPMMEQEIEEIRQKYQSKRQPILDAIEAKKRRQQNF

CC(C)[C@H](CO)Nc1nc(Nc2cc(N)cc(Cl)c2)c2ncn(C(C)C)c2n1
residual activity [1]: 101%
residual activity [2]: 66.1%
residual activity [3]: 73.6%
residual activity [4]: 64%
residual activity [5]: 73%
residual activity [6]: 7.81%
residual activity [7]: 82.5%
residual activity [8]: 113%
residual activity [9]: 100%
residual activity [10]: 63.6%
residual activity [11]: 92%
residual activity [12]: 76.9%
residual activity [13]: 13.4%
residual activity [14]: 103%
residual activity [15]: 39.8%
residual activity [16]: 17.7%
residual activity [17]: 103%
residual activity [18]: 100%
residual activity [19]: 92.5%
residual activity [20]: 89.4%
residual activity [21]: 98%
residual activity [22]: 71.2%
residual activity [23]: 27.3%
residual activity [24]: 93.9%
residual activity [25]: 62.1%
residual activity [26]: 98.2%
residual activity [27]: 0.133%
residual activity [28]: 102% and 104%
residual activity [29]: 85.5%
residual activity [30]: 94.2%
residual activity [31]: 97.3%
residual activity [32]: 95.1%
residual activity [33]: 83.7%
residual activity [34]: 90.7%
residual activity [35]: 98.4%
residual activity [36]: 109%
residual activity [37]: 87.8%
residual activity [38]: 45.5%
residual activity [39]: 89.3%
residual activity [40]: 47.8%

O=C1NC(=O)C(c2cn(CCCO)c3ncccc23)=C1c1cnccn1
residual activity [1]: 117%
residual activity [2]: 91.1%
residual activity [3]: 78.3%
residual activity [4]: 99.4%
residual activity [5]: 98.4%
residual activity [6]: 85.5%
residual activity [7]: 37.5%
residual activity [8]: 92.7%
residual activity [9]: 78.1%
residual activity [10]: 83.6%
residual activity [11]: 104%
residual activity [12]: 91.3%
residual activity [13]: 107%
residual activity [14]: 95.1%
residual activity [15]: 106%
residual activity [16]: 80.8%
residual activity [17]: 93.7%
residual activity [18]: 88.3%
residual activity [19]: 103%
residual activity [20]: 113%
residual activity [21]: 83.3%
residual activity [22]: 93.9%
residual activity [23]: 63.4%
residual activity [24]: 95.9%
residual activity [25]: 98%
residual activity [26]: 94.7%
residual activity [41]: 101% and 112%
residual activity [27]: 73.9%
residual activity [29]: 67.8%
residual activity [30]: 107%
residual activity [32]: 91.3%
residual activity [33]: 111%
residual activity [42]: 84.4%
residual activity [34]: 67.4%
residual activity [35]: 103%
residual activity [36]: 105%
residual activity [37]: 101%
residual activity [38]: 98.9%
residual activity [39]: 101%
residual activity [40]: 90.7%

O=C1NC(=O)C(c2c[nH]c3ccccc23)=C1c1c[nH]c2ccccc12
residual activity [1]: 101%
residual activity [2]: 27.7%
residual activity [3]: 96.9%
residual activity [4]: 95.3%
residual activity [5]: 80%
residual activity [6]: 55.4%
residual activity [7]: 87.1%
residual activity [8]: 105%
residual activity [9]: 91%
residual activity [10]: 61.8%
residual activity [11]: 97.7%
residual activity [12]: 98.3%
residual activity [13]: 89.9%
residual activity [14]: 106%
residual activity [15]: 45.4%
residual activity [16]: 68.7%
residual activity [17]: 101%
residual activity [18]: 127%
residual activity [19]: 101%
residual activity [20]: 90.6%
residual activity [21]: 103%
residual activity [22]: 95.3%
residual activity [23]: 96%
residual activity [25]: 89.4%
residual activity [26]: 94.6%
residual activity [41]: 102% and 104%
residual activity [27]: 79.5%
residual activity [28]: 76.8% and 82.4%
residual activity [29]: 102%
residual activity [30]: 97.6%
residual activity [31]: 42.9%
residual activity [32]: 79%
residual activity [33]: 93.6%
residual activity [42]: 103%
residual activity [34]: 84.9%
residual activity [35]: 90.5%
residual activity [36]: 96.5%
residual activity [37]: 89.3%
residual activity [38]: 89.1%
residual activity [39]: 87.4%
residual activity [40]: 94.9%

CN([C@@H](Cc1ccc(OS(=O)(=O)c2cccc3cnccc23)cc1)C(=O)N1CCN(c2ccccc2)CC1)S(=O)(=O)c1cccc2cnccc12
residual activity [1]: 108%
residual activity [2]: 105%
residual activity [3]: 103%
residual activity [4]: 102%
residual activity [5]: 105%
residual activity [6]: 104%
residual activity [7]: 96.3%
residual activity [8]: 98.5%
residual activity [9]: 90.7%
residual activity [10]: 96.8%
residual activity [11]: 102%
residual activity [12]: 101%
residual activity [13]: 104%
residual activity [14]: 101%
residual activity [15]: 101%
residual activity [16]: 105%
residual activity [17]: 101%
residual activity [18]: 96.4%
residual activity [19]: 106%
residual activity [20]: 99.6%
residual activity [21]: 98.6%
residual activity [22]: 98.8%
residual activity [23]: 97.4%
residual activity [24]: 89.4%
residual activity [25]: 104%
residual activity [26]: 96.6%
residual activity [41]: 101% and 92.1%
residual activity [27]: 99.5%
residual activity [28]: 84.2% and 93.6%
residual activity [29]: 103%
residual activity [30]: 101%
residual activity [32]: 92.6%
residual activity [33]: 93.5%
residual activity [42]: 105%
residual activity [34]: 89.5%
residual activity [35]: 101%
residual activity [36]: 103%
residual activity [37]: 104%
residual activity [38]: 100%
residual activity [39]: 98.7%
residual activity [40]: 94.8%
